According to publication PMC10046369, “Low-Affinity/High-Selectivity Dopamine Transport Inhibition Sufficient to Rescue Cognitive Functions in the Aging Rat” (Biomolecules, 2023):

Key:
Experiment in all cases: biochemical
Design in all cases: KINOMEscan competition binding panel, per cent of control
Details in all cases: read-out: %Ctrl @ 2800nM
DDR1 = DDR1 (Homo sapiens, UniProt Q08345)
Outline: (§1)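 Values are expressed as percent of control, calculated as ((test − positive control)/(negative control − positive control)) × 100, so lower numbers mean stronger hits. Binding was measured by KINOMEscan competition assay in a 450-kinase human panel including disease mutants, using the contractor's validated protocol.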

TESK1 = TESK1 (Homo sapiens, UniProt Q15569)
Outline: as §1

MYLK4 = MYLK4 (Homo sapiens, UniProt Q86YV6)
Outline: as §1

[1] = biological target: T1, ABL1(Y253F)-phosphorylated (Homo sapiens, UniProt P00519, Y253F)
T1 construct: phosphorylated
Outline: as §1

PRKCH = PRKCH (Homo sapiens, UniProt P24723)
Outline: as §1

MAP3K15 = MAP3K15 (Homo sapiens, UniProt Q6ZN16)
Outline: as §1

PRKR = biological target: T2, PRKR (Homo sapiens, UniProt P19525)
T2 construct: gene EIF2AK2
Outline: as §1

HUNK = HUNK (Homo sapiens, UniProt P57058)
Outline: as §1

JNK2 = biological target: T3, JNK2 (Homo sapiens, UniProt P45984)
T3 construct: gene MAPK9
Outline: as §1

[2] = biological target: T4, ABL1(M351T)-phosphorylated (Homo sapiens, UniProt P00519, M351T)
T4 construct: phosphorylated
Outline: as §1

CLK1 = CLK1 (Homo sapiens, UniProt P49759)
Outline: as §1

EPHA4 = EPHA4 (Homo sapiens, UniProt P54764)
Outline: as §1

NDR2 = biological target: T5, NDR2 (Homo sapiens, UniProt Q9Y2H1)
T5 construct: gene STK38L
Outline: as §1

FLT3(R834Q) = FLT3(R834Q) (Homo sapiens, UniProt P36888, R834Q)
Outline: as §1

TGFBR1 = TGFBR1 (Homo sapiens, UniProt P36897)
Outline: as §1

ASK1 = biological target: T6, ASK1 (Homo sapiens, UniProt Q99683)
T6 construct: gene MAP3K5
Outline: as §1

SNARK = biological target: T7, SNARK (Homo sapiens, UniProt Q9H093)
T7 construct: gene NUAK2
Outline: as §1

EPHB3 = EPHB3 (Homo sapiens, UniProt P54753)
Outline: as §1

SRC = SRC (Homo sapiens, UniProt P12931)
Outline: as §1

GRK4 = GRK4 (Homo sapiens, UniProt P32298)
Outline: as §1

PIK3CA(H1047Y) = PIK3CA(H1047Y) (Homo sapiens, UniProt P42336, H1047Y)
Outline: as §1

NIM1 = biological target: T8, NIM1 (Homo sapiens, UniProt Q8IY84)
T8 construct: gene NIM1K
Outline: as §1

CDKL2 = CDKL2 (Homo sapiens, UniProt Q92772)
Outline: as §1

MLCK = biological target: T9, MLCK (Homo sapiens, UniProt Q32MK0)
T9 construct: gene MYLK3
Outline: as §1

CAMK1G = CAMK1G (Homo sapiens, UniProt Q96NX5)
Outline: as §1

MST3 = biological target: T10, MST3 (Homo sapiens, UniProt Q9Y6E0)
T10 construct: gene STK24
Outline: as §1

T2 sequence (P19525 whole entry): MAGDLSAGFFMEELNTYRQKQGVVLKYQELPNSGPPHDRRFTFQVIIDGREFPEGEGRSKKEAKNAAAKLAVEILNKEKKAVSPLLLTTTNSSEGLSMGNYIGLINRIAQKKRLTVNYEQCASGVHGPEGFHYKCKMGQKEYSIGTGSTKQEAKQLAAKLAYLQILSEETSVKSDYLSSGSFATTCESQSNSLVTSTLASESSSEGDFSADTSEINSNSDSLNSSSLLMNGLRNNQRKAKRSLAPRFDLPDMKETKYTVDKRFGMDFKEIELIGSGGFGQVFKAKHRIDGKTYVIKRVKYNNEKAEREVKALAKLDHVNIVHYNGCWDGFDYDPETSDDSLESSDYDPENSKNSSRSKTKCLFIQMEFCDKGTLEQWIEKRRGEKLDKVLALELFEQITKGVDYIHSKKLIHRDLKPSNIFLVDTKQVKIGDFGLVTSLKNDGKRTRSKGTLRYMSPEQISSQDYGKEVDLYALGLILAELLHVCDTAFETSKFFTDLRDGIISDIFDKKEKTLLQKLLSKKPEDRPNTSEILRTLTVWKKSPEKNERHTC
T9 sequence (Q32MK0 whole entry): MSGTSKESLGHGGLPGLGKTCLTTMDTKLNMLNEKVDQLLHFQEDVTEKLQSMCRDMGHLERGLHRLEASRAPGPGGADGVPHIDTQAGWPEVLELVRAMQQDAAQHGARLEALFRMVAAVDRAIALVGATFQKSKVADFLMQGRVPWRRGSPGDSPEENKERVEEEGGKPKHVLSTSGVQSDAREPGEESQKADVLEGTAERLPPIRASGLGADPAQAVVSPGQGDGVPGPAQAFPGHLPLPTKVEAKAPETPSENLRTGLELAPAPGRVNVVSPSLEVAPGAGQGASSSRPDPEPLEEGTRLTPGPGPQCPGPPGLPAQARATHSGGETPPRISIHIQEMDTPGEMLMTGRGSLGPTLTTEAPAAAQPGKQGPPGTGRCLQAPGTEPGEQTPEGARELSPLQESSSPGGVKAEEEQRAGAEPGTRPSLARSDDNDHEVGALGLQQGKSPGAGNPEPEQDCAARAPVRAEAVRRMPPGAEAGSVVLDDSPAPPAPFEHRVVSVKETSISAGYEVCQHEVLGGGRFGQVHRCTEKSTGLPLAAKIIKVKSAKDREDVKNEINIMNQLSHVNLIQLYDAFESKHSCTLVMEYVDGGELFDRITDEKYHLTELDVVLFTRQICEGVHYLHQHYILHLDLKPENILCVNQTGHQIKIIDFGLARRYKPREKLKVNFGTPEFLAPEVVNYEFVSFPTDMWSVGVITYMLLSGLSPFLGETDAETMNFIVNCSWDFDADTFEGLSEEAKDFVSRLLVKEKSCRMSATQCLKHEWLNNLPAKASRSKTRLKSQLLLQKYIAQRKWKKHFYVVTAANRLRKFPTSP
Chain of CDKL2 (Q92772 whole entry): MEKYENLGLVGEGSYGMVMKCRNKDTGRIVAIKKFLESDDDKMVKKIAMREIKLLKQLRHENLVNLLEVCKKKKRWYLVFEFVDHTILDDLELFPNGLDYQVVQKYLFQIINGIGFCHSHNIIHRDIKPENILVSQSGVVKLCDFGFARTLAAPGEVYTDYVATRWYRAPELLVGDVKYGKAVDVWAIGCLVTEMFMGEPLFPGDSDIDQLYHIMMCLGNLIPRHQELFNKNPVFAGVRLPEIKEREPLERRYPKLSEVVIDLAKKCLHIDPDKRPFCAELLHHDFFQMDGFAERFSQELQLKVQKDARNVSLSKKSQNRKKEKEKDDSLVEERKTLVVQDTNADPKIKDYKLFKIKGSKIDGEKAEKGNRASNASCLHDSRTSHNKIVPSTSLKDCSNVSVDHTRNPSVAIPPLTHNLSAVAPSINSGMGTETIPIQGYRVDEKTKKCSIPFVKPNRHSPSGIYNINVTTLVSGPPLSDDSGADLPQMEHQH
T7 sequence (Q9H093 whole entry): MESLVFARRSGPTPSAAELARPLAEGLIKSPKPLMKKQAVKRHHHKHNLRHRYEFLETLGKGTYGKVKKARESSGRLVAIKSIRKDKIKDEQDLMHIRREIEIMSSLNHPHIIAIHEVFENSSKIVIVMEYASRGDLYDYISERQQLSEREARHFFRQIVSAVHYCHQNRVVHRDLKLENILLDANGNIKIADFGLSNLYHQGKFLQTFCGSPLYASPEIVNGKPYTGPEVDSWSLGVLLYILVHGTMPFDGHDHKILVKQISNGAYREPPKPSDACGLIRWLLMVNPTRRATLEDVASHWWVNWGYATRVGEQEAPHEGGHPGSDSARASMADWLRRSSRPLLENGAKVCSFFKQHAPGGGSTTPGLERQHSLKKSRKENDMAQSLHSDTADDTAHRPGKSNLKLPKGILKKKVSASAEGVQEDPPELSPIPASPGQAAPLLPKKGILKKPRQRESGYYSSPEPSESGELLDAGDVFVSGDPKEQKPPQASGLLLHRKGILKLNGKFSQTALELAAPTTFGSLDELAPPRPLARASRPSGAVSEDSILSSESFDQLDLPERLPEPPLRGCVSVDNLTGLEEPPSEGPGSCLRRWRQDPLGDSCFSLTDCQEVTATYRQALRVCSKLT
T5 sequence (Q9Y2H1 whole entry): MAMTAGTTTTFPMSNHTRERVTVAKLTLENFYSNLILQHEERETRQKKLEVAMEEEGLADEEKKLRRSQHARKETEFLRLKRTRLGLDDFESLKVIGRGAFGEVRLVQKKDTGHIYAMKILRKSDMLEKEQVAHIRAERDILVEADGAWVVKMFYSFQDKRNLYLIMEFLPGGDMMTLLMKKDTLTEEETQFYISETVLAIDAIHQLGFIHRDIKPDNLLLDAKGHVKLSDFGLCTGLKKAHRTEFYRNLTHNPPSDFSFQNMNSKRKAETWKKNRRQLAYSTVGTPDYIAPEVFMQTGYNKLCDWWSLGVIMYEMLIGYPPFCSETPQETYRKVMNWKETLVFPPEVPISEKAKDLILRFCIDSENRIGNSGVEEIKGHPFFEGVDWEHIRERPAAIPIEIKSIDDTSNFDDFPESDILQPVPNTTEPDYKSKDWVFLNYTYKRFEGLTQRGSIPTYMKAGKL
Chain of TGFBR1 (P36897 whole entry): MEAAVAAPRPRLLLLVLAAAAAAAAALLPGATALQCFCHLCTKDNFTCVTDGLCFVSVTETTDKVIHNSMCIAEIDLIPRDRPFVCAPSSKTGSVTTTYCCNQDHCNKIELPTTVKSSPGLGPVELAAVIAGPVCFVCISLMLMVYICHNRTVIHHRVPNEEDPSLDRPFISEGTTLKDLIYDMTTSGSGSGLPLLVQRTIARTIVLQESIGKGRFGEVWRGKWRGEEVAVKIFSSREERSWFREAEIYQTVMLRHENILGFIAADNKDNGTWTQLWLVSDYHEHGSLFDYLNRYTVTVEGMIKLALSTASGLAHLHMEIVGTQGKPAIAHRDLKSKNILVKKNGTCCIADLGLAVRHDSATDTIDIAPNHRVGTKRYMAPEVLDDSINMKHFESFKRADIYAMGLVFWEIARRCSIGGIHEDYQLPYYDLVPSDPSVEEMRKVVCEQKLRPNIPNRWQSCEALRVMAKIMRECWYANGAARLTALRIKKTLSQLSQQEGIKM
Chain of TESK1 (Q15569 whole entry): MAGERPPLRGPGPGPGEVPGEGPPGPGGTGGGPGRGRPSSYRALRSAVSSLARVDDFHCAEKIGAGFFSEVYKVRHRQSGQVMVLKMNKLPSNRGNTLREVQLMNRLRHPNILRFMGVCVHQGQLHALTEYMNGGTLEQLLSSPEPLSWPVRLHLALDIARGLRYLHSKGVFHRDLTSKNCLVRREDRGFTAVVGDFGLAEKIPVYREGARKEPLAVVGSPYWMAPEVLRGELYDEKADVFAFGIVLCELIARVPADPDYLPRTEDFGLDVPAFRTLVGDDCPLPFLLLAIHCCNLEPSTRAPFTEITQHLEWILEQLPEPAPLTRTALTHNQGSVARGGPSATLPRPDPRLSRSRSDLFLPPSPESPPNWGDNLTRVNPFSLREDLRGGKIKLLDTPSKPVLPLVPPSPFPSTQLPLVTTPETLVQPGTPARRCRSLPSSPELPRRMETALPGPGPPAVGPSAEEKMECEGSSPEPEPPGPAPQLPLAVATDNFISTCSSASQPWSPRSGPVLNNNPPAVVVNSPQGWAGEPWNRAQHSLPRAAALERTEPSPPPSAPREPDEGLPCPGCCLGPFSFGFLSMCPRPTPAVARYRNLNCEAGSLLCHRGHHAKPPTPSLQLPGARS
Chain of MYLK4 (Q86YV6 whole entry): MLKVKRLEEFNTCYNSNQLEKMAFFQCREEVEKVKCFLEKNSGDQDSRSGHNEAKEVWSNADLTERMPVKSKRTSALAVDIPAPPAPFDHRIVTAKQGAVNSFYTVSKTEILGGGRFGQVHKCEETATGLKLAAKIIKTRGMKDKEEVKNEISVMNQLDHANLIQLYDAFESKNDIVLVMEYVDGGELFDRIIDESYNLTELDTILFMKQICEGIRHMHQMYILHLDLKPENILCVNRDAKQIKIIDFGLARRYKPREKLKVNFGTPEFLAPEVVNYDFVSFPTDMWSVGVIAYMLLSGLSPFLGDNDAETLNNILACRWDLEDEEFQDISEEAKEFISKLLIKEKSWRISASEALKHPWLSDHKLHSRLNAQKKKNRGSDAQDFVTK
T8 sequence (Q8IY84 whole entry): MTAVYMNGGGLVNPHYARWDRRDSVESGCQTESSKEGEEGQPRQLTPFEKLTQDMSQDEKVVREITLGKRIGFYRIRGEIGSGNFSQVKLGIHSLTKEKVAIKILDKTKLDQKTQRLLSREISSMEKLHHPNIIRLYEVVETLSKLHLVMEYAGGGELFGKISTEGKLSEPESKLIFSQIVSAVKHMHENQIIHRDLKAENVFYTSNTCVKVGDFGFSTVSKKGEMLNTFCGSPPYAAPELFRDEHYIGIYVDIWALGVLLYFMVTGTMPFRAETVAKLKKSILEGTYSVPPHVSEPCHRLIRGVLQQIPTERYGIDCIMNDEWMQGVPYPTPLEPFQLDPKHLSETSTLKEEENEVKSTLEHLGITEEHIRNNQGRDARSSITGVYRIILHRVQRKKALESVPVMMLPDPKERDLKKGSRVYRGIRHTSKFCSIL

[O-][S@@+](Cc1cncs1)C(c1ccccc1)c1ccccc1 [S-CE-123, (S)-5-((Benzhydrylsulfinyl)Methyl)Thiazole]
remaining binding at 2.8 µM (DDR1): 100% | remaining binding at 2.8 µM (TESK1): 96% | remaining binding at 2.8 µM (MYLK4): 89% | remaining binding at 2.8 µM [1]: 93% | remaining binding at 2.8 µM (PRKCH): 100% | remaining binding at 2.8 µM (MAP3K15): 84% | remaining binding at 2.8 µM (PRKR): 93% | remaining binding at 2.8 µM (HUNK): 100% | remaining binding at 2.8 µM (JNK2): 90% | remaining binding at 2.8 µM [2]: 100% | remaining binding at 2.8 µM (CLK1): 96% | remaining binding at 2.8 µM (EPHA4): 97% | remaining binding at 2.8 µM (NDR2): 82% | remaining binding at 2.8 µM (FLT3(R834Q)): 90% | remaining binding at 2.8 µM (TGFBR1): 86% | remaining binding at 2.8 µM (ASK1): 84% | remaining binding at 2.8 µM (SNARK): 100% | remaining binding at 2.8 µM (EPHB3): 100% | remaining binding at 2.8 µM (SRC): 100% | remaining binding at 2.8 µM (GRK4): 73% | remaining binding at 2.8 µM (PIK3CA(H1047Y)): 100% | remaining binding at 2.8 µM (NIM1): 97% | remaining binding at 2.8 µM (CDKL2): 89% | remaining binding at 2.8 µM (MLCK): 96% | remaining binding at 2.8 µM (CAMK1G): 82% | remaining binding at 2.8 µM (MST3): 87%
